Test results as given in PMC6149949, “Synthesis and Evaluation of Thiochroman-4-One Derivatives as Potential Leishmanicidal Agents” (Molecules : A Journal of Synthetic Chemistry and Natural …, 2017).

Assays:
[1] = in vitro; settings: human
Method: Cytotoxicity of the compounds was evaluated over human monocytes (U-937 ATCC CRL-1593.2) in exponential growing phase and, adjusted at 1 × 10^5 cells/mL in RPMI-1640 enriched with 10% fetal bovine serum (FBS). One hundred microliters of cell suspension were dispensed in each well of a 96-wells microplate and then, 100 μL of each compound or standard drug (amphotericin B) at four serial dilution concentrations (200, 50, 12.5 and 3.125 μg/mL) were added dissolved in pbs with 0.5% DMSO. Cell exposed to compounds or standard drugs were incubated 72 h at 37 °C and 5% of CO2. Cytotoxic activity of each compound was determined according to the effect on the cell viability by the MTT microenzymatic method in which 3-(4,5-dimethylthiazol-2-yl)- 2,5-diphenyltetrazolium bromide is reduced to a purple product named formazan by mitochondrial enzyme succinate dehydrogenase. Thus, 10 μL/well of MTT solution (5 mg/mL) were added to each well of exposed and unexposed cells, and plates were incubated at 37 °C, 5% CO2 during 3 h. The reaction was stopped by adding 100 μL/well of isopropanol with 50% and 10% of SDS (sodium dodecyl sulfate). The concentration of formazan was determined spectrophotometrically at 570 nm (Varioskan Flash Multimode Reader, Thermo Scientific, Waltham, MA, USA) and intensity of color (absorbance) was registered as O.D. Cells exposed to control drug (amphotericin B) were used as control for toxicity (positive control) while cell incubated in absence of any compound or drug were used as control for viability (negative control). Non-specific absorbance was corrected by subtracting absorbance (O.D) of the blank. Determinations were done by triplicate in at least two independent experiments.
Cytotoxicity was determined according to viability and mortality percentages obtained for each experimental condition (synthetized compounds, amphotericin B and culture medium). Results were expressed as the mean lethal concentrations (LC50), concentration necessary to kill 50% of cells, calculated by the parametric method of linear regression that permits doses-response analysis (Probit analysis).
Initially, viability percentages were calculated by Equation (1), where the O.D of control well, corresponds to 100% of viability. % viability = (O.D exposed cells/O.D unexposed cells) × 100(1)
Then, the percentage of cell growth inhibition was calculated using Equation (2):% inhibition = 100 − (% Viability)(2)
The toxicity was defined according to LC50 values, using the follow scale: Toxic; LC50 < 100 μM; moderately toxic; LC50 > 100 μM and <200 μM and potentially nontoxic; LC50 > 200 μM.

[2] = system: intracellular amastigotes of Leishmania panamensis (MHOM/CO/87/UA140-EGFP strain); experiment: In vitro antileishmanial activity on intracellular amastigotes (GFP, flow cytometry); assay type: cell-based; settings: for EC50: Leishmania panamensis, U-937, 72 h, intracellular amastigotes of L. panamensis in U-937 cells, 72 h, mean ± SD; for SI (index of selectivity, IS = LC50/EC50): LC50 U-937 / EC50 L. panamensis amastigotes
Method: Antileishmanial activity of compounds was determined according to the ability of the compound to reduce the infection by L. panamensis parasites. For this, the antileishmanial activity was tested on intracellular amastigotes of L. panamensis transfected with the green fluorescent protein gene (MHOM/CO/87/UA140-EGFP strain). Briefly, U-937 human cells at a density of 3 × 10^5 cells/mL in RPMI 1640 and 0.1 μg/mL of PMA (phorbol-12-myristate-13-acetate) were dispensed on 24-wells microplate and then infected with stationary phase growing L. panamensis promastigotes in 15:1 parasites per cell ratio. Plates were incubated at 34 °C and 5% CO2 for 3 h and then cells were washed twice with phosphate buffer solution (PBS) to eliminate not internalized parasites. Fresh RPMI-1640 was added into each well (1 mL) and plates were incubated again. After 24 h of infection, the RPMI-1640 medium was replaced by fresh culture medium containing each compound at four serial dilutions (50, 12.5, 3.125 and 0.78 μg/mL) and plates were then incubated at 37 °C and 5% CO2 during 72 h, then, cells were removed from the bottom plate with 100 μL of EDTA/Trypsin (250 mg) solution. The cells were centrifuged at 1100 rpm during 10 min at 4 °C, the supernatant was discarded and cells were washed with 1 mL of cold PBS and centrifuged at 1100 rpm for 10 min at 4 °C. Cells were washed two times employing PBS, as previously, and after the last wash, the supernatant was discarded and cells were suspended in 500 μL of PBS.
Cells were analyzed by flow cytometry employing a flow cytometer (cytomics FC 500MPL, Beckman Coulter. Pasadena, CA, USA) reading at 488 nm (exciting) and 525 nm (emitting) over an argon laser and counting 10,000 events. Infected cells were determined according the events for green fluorescence (parasites). All determinations for each compound and standard drug were carried out by triplicate, in two experiments. Infected cells exposed to control drug (amphotericin B) were used as control for antileishmanial activity (positive control) while infected cells incubated in absence of any compound or drug were used as control for infection (negative control). Nonspecific fluorescence was corrected by subtracting fluorescence of unstained cells. Determinations were done by triplicate in at least two independent experiments.
Antileishmanial activity was determined according reduction of percentage of fluorescent parasites determined according to the median fluorescence intensity (MFI), obtained for each experimental condition by cytometry. The parasite values for each concentration of compound were calculated by Equation (3), where the % of parasites in the control well, corresponds to 100% of parasites. % parasites = (MFI exposed parasites/MFI unexposed parasites) × 100(3)
Then, inhibition percentage was calculated with Equation (4):% inhibition of parasites = 100 − (% parasites)(4)
Results of antileishmanial activities were expressed as the median effective concentrations (EC50) measured by Probit method.

Row | SMILES | CC50 at 72 h [1] [µM] | EC50 [2] [µM] | SI (index of selectivity, IS = LC50/EC50) [2]
1 | C[C@@H]1[C@H](O)[C@@H](C)/C=C/C=C/C=C/C=C/C=C/C=C/C=C/[C@H](O[C@@H]2O[C@H](C)[C@@H](O)[C@H](N)[C@@H]2O)C[C@@H]2O[C@](O)(C[C@@H](O)C[C@@H](O)[C@H](O)CC[C@@H](O)C[C@@H](O)CC(=O)O[C@H]1C)C[C@H](O)[C@H]2C(=O)O [Amphotericin B, reference compound] | 39.6 ± 8.7 | 0.32 | –
2 | CC1CC(=O)c2ccccc2S1 (centres unmarked) [Compound 1a, 2-Methylthiochroman-4-one] | 604 ± 86.4 | – | 1.36
3 | CC1CC(=O)c2cc(F)ccc2S1 (centres unmarked) [Compound 1b, 6-Fluoro-2-methylthiochroman-4-one] | 579 ± 59.1 | – | 1.37
4 | O=C1CCSc2ccc(F)cc21 [Compound 1c, 6-Fluorothiochroman-4-one] | 705 | > 110 | <6.42
5 | O=C1CCSc2c1ccc1c2C(=O)CCS1 [Compound 1d, 2,3,8,9-Tetrahydro-4H,10H-thiopyran[2,3-f]thiochromene-4,10-dione] | 279 ± 36.4 | > 80 | <3.49
6 | O=C1CC(C(=O)O)Sc2ccccc21 (centres unmarked) [Compound 1e, 4-Oxothiochroman-2-carboxylic acid] | 143 ± 16.8 | > 96.1 | <1.48
7 | O=C1CCSc2ccc([N+](=O)[O-])cc21 [Compound 1f, 6-Nitrothiochroman-4-one] | > 200 | > 95.6 | –
8 | Nc1ccc2c(c1)C(=O)CCS2 [Compound 1g, 6-Aminothiochroman-4-one] | 118 ± 10.5 | > 112 | <1.100
9 | O=C1CC(c2ccccc2)Sc2ccccc21 (centres unmarked) [Compound 1h, 2-Phenylthiochroman-4-one] | > 41.6 | 44.1 ± 0.9 | –
10 | O=C1CC(c2ccc(C(F)(F)F)cc2)Sc2ccccc21 (centres unmarked) [Compound 1i, 2-(4-(Trifluoromethyl)-phenyl)-thiochroman-4-one] | > 649 | 61.4 ± 1.62 | >10.56
11 | O=C1CC(c2ccc(C(F)(F)F)cc2)Sc2ccc(F)cc21 (centres unmarked) [Compound 1j, 6-Fluoro-2-(4-(trifluoromethyl)-phenyl)thiochroman-4-one] | 129 ± 3.45 | 80.3 ± 12.1 | 1.60
12 | O=C1CC(c2ccc(Cl)cc2)Sc2ccccc21 (centres unmarked) [Compound 1k, 2-(4-Chlorophenyl)-thiochroman-4-one] | 64.4 ± 3.98 | > 72.8 | <0.90
13 | O=C1CC(c2ccc(F)cc2)Sc2ccccc21 (centres unmarked) [Compound 1l, 2-(4-Fluorophenyl)-thiochroman-4-one] | 72.9 ± 9.87 | 93.6 ± 11 | 0.78
14 | O=C1CC(c2ccc([N+](=O)[O-])cc2)Sc2ccccc21 (centres unmarked) [Compound 1m, 2-(4-Nitrophenyl)-thiochroman-4-one] | > 701 | > 70.1 | –
15 | O=c1ccsc2ccc([N+](=O)[O-])cc12 [Compound 2f, 6-Nitro-4H-thiochromen-4-one] | > 965 | 36.8 ± 1.74 | >26.26
16 | O=c1cc(-c2ccc(C(F)(F)F)cc2)sc2ccccc12 [Compound 2i, 2-(4-(Trifluoromethyl)-phenyl)-4H-thiochromen-4-one] | 522 ± 314 | 161 ± 20.5 | 3.24
17 | O=c1cc(-c2ccc(C(F)(F)F)cc2)sc2ccc(F)cc12 [Compound 2j, 6-Fluoro-2-(4-(trifluoromethyl)-phenyl)-4H-thiochromen-4-one] | 51.4 ± 11.6 | 52.3 ± 8.92 | 0.98
18 | O=c1cc(-c2ccc(Cl)cc2)sc2ccccc12 [Compound 2k, 2-(4-Chlorophenyl)-4H-thiochromen-4-one] | > 733 | > 73.3 | –
19 | O=c1cc(-c2ccc(F)cc2)sc2ccccc12 [Compound 2l, 2-(4-Fluorophenyl)-4H-thiochromen-4-one] | 503 ± 382 | > 78 | <6.45
20 | O=c1cc(-c2ccc([N+](=O)[O-])cc2)sc2ccccc12 [Compound 2m, 2-(4-nitrophenyl)-4H-thiochromen-4-one] | > 706 | > 70.6 | –
21 | CC1CC(=O)c2ccccc2S1(=O)=O (centres unmarked) [Compound 3a, 2-Methylthiochroman-4-one 1,1-dioxide] | > 825 | > 95.2 | –
22 | CC1CC(=O)c2cc(F)ccc2S1(=O)=O (centres unmarked) [Compound 3b, 6-Fluoro-2-methylthiochroman-4-one 1,1-dioxide] | > 876 | > 87.7 | –
23 | O=C1CCS(=O)(=O)c2ccc(F)cc21 [Compound 3c, 6-Fluorothiochroman-4-one 1,1-dioxide] | > 934 | > 93.5 | –
24 | O=C1CC(c2ccccc2)S(=O)(=O)c2ccccc21 (centres unmarked) [Compound 3h, 2-Phenylthiochroman-4-one 1,1-dioxide] | 529 ± 52.9 | 217 ± 34.9 | –
25 | O=C1CC(c2ccc(C(F)(F)F)cc2)S(=O)(=O)c2ccccc21 (centres unmarked) [Compound 3i, 2-(4-(Trifluoromethyl)-phenyl)-thiochroman-4-one 1,1-dioxide] | 62.9 ± 10.3 | 84.8 ± 3.23 | 0.74
26 | O=C1CC(c2ccc(C(F)(F)F)cc2)S(=O)(=O)c2ccc(F)cc21 (centres unmarked) [Compound 3j, 6-Fluoro-2-(4-(trifluoromethyl)-phenyl)-thiochroman-4-one 1,1-dioxide] | > 558 | 79.1 ± 8.98 | >7.06
27 | O=C1CC(c2ccc(Cl)cc2)S(=O)(=O)c2ccccc21 (centres unmarked) [Compound 3k, 2-(4-Chlorophenyl)-thiochroman-4-one 1,1-dioxide] | > 652 | 137.1 ± 1.29 | >4.76
28 | O=C1CC(c2ccc(F)cc2)S(=O)(=O)c2ccccc21 (centres unmarked) [Compound 3l, 2-(4-Fluorophenyl)thiochroman-4-one 1,1-dioxide] | 689 | > 68.9 | –
29 | O=C1CC(c2ccc([N+](=O)[O-])cc2)S(=O)(=O)c2ccccc21 (centres unmarked) [Compound 3m, 2-(4-Nitrophenyl)-thiochroman-4-one 1,1-dioxide] | > 630 | > 63 | –
30 | O=C1C=C(c2ccc(C(F)(F)F)cc2)S(=O)(=O)c2ccc(F)cc21 [Compound 4j, 6-Fluoro-2-(4-(trifluoromethyl)-phenyl)-4H-thiochromen-4-one 1,1-dioxide] | > 561 | – | –
